The record followed here is article PMC9811465, “Structure-Based Discovery of Small-Molecule Inhibitors of the Autocatalytic Proliferation of α-Synuclein Aggregates” (Molecular Pharmaceutics, 2022).

By Kd is commonly meant the constant that tells how readily two partners part at equilibrium.

One assay deals with T1, α-synuclein (fibrils) (Homo sapiens, UniProt P37840).
T1 construct: gene SNCA; recombinant human α-synuclein, preformed amyloid fibrils
Kind of assay: fluorescence polarization with fibrils (Kd in monomer equivalents); supported by mass spectrometry pull-down, fluorescence colocalization and aggregation kinetics. In kind it is binding.

A further assay has as its target T2, α-synuclein (Homo sapiens, UniProt P37840).
T2 construct: gene SNCA
Briefly: ThT seeded aggregation kinetics; half-time increased […] times at […] molar equivalents; weakest, not significant at […] equivalents. In kind it is biochemical.

As to `Cc1c(OCc2nnn[nH]2)ccc2c1oc(=O)c1ccccc12` [C, compound C], the Kd at α-synuclein (fibrils) is approximately 4 µM.

Consider `Cc1nc2ccccn2c1C(=O)NCc1nccnc1-c1ccco1` [A, compound A], for which, on α-synuclein, the “ThT seeded aggregation kinetics; half-time increased 1.5 times at 10 molar equiv” value is given as 1.5 fold increase in half-time (t1/2).
